Measurements reported in publication PMC2248166, “Quantitative peptide binding motifs for 19 human and mouse MHC class I molecules derived using positional scanning combinatorial peptide libraries” (Immunome Research, 2008).
Where a SMILES comes first, the peptide text is derived from it.

Molecular target: HLA B*1503 (Homo sapiens, UniProt P01889, A329T/A93T/A95T/C349S/D201E/D98Y/E187L/E204Q/K202T/N87E/Q94N/R155S/R180L/S121R/S35A/V306I/V36M/Y140S/Y91S)
Assay: biochemical
Format: binding

Compound | IC50 [nM]
CC[C@H](C)[C@H](N)C(=O)N[C@@H](CCC(=O)O)C(=O)N[C@H](C(=O)N[C@@H](CO)C(=O)N[C@@H](CO)C(=O)N[C@@H](CC(=O)O)C(=O)N[C@H](C(=O)N[C@@H](CO)C(=O)N[C@@H](Cc1ccccc1)C(=O)O)[C@@H](C)CC)C(C)C [3102.1201] (H-IEVSSDISF-OH) | 9.7
CC[C@H](C)[C@H](NC(=O)[C@H](Cc1c[nH]cn1)NC(=O)[C@H](CC(N)=O)NC(=O)[C@H](CCCCN)NC(=O)[C@@H](N)CCCNC(=N)N)C(=O)N[C@@H](Cc1ccc(O)cc1)C(=O)N[C@@H](CC(N)=O)C(=O)N[C@@H](CO)C(=O)N[C@@H](Cc1ccccc1)C(=O)O [3102.1203] (H-RKNHIYNSF-OH) | 0.13
CC(C)C[C@H](NC(=O)[C@@H](N)Cc1ccccc1)C(=O)N[C@@H](CO)C(=O)N[C@@H](CC(N)=O)C(=O)N[C@@H](CS)C(=O)N[C@@H](CCC(=O)O)C(=O)N[C@@H](CCCCN)C(=O)N[C@@H](CCC(N)=O)C(=O)N[C@@H](Cc1ccccc1)C(=O)O [3102.1206] (H-FLSNCEKQF-OH) | 21
CC[C@H](C)[C@H](NC(=O)[C@H](CO)NC(=O)[C@@H](NC(=O)[C@H](Cc1ccccc1)NC(=O)CNC(=O)[C@@H](NC(=O)[C@@H](NC(=O)[C@H](CCCCN)NC(=O)[C@@H](N)CCCCN)C(C)C)[C@@H](C)CC)C(C)C)C(=O)O [3102.1208] (H-KKVIGFVSI-OH) | 7.5
CC[C@H](C)[C@H](N)C(=O)N[C@@H](CCC(N)=O)C(=O)N[C@@H](CCCNC(=N)N)C(=O)N[C@H](C(=O)N[C@@H](Cc1ccc(O)cc1)C(=O)N[C@@H](CO)C(=O)N[C@@H](CO)C(=O)N[C@@H](CO)C(=O)N[C@H](C(=O)O)[C@@H](C)CC)[C@@H](C)O [3102.1209] (H-IQRTYSSSI-OH) | 0.83
CSCC[C@H](NC(=O)[C@H](CCSC)NC(=O)[C@H](CCC(=O)O)NC(=O)[C@H](C)N)C(=O)N[C@@H](C)C(=O)N1CCC[C@H]1C(=O)N[C@@H](CO)C(=O)N[C@@H](CCSC)C(=O)N[C@@H](Cc1ccccc1)C(=O)O [3102.1211] (H-AEMMAPSMF-OH) | 17
CC(C)C[C@H](N)C(=O)N[C@@H](CCC(=O)O)C(=O)N[C@@H](Cc1ccccc1)C(=O)N[C@@H](CC(N)=O)C(=O)N[C@H](C(=O)N1CCC[C@H]1C(=O)N[C@@H](Cc1ccccc1)C(=O)N[C@H](C(=O)N[C@@H](Cc1ccccc1)C(=O)O)C(C)C)[C@@H](C)O [3102.1212] (H-LEFNTPFVF-OH) | 10
CSCC[C@H](NC(=O)[C@@H](NC(=O)[C@H](CO)NC(=O)[C@@H](NC(=O)[C@H](Cc1ccc(O)cc1)NC(=O)[C@@H](NC(=O)[C@H](Cc1ccccc1)NC(=O)[C@H](CCCCN)NC(=O)[C@@H](N)CO)C(C)C)C(C)C)C(C)C)C(=O)O [3102.1213] (H-SKFVYVSVM-OH) | 1.6
CC[C@H](C)[C@H](N)C(=O)N[C@@H](CC(C)C)C(=O)N[C@@H](C)C(=O)N1CCC[C@H]1C(=O)N[C@@H](CC(N)=O)C(=O)N1CCC[C@H]1C(=O)N[C@@H](CC(N)=O)C(=O)N[C@@H](CCCNC(=N)N)C(=O)N[C@@H](Cc1ccccc1)C(=O)O [3102.1221] (H-ILAPNPNRF-OH) | 26
CC[C@H](C)[C@H](NC(=O)[C@H](CO)NC(=O)[C@H](C)NC(=O)[C@H](Cc1ccccc1)NC(=O)[C@H](CO)NC(=O)CNC(=O)[C@H](CO)NC(=O)[C@@H](N)Cc1ccccc1)C(=O)N[C@@H](Cc1ccccc1)C(=O)O [3102.1222] (H-FSGSFASIF-OH) | 0.32
CSCC[C@H](NC(=O)[C@@H](N)CS)C(=O)N[C@@H](CO)C(=O)N[C@@H](CC(N)=O)C(=O)N[C@@H](CO)C(=O)N[C@@H](CCCNC(=N)N)C(=O)N[C@@H](CC(C)C)C(=O)N[C@@H](CO)C(=O)N[C@@H](Cc1ccccc1)C(=O)O [3102.1225] (H-CMSNSRLSF-OH) | 1
CC[C@H](C)[C@H](N)C(=O)N[C@@H](CO)C(=O)N[C@H](C(=O)N[C@@H](Cc1ccc(O)cc1)C(=O)N1CCC[C@H]1C(=O)NCC(=O)N[C@@H](CC(N)=O)C(=O)N[C@H](C(=O)N[C@@H](Cc1ccccc1)C(=O)O)[C@@H](C)O)[C@@H](C)O [3102.1229] (H-ISTYPGNTF-OH) | 0.48
CC(C)C[C@H](NC(=O)[C@H](CO)NC(=O)[C@H](CC(C)C)NC(=O)CNC(=O)[C@H](CS)NC(=O)[C@H](CO)NC(=O)[C@H](Cc1ccccc1)NC(=O)[C@H](CCCCN)NC(=O)[C@@H](N)Cc1ccc(O)cc1)C(=O)O [3102.1230] (H-YKFSCGLSL-OH) | 0.13
CC(C)C[C@H](NC(=O)[C@H](Cc1ccc(O)cc1)NC(=O)[C@H](CCC(N)=O)NC(=O)[C@H](Cc1ccccc1)NC(=O)[C@H](CCC(N)=O)NC(=O)[C@@H]1CCCN1C(=O)[C@H](CCC(N)=O)NC(=O)[C@H](CCC(N)=O)NC(=O)[C@@H](N)Cc1ccccc1)C(=O)O [3102.1233] (H-FQQPQFQYL-OH) | 23
CC[C@H](C)[C@H](NC(=O)[C@@H](NC(=O)[C@H](CC(C)C)NC(=O)[C@H](CCSC)NC(=O)[C@H](CCCCN)NC(=O)[C@@H](N)CC(N)=O)[C@@H](C)O)C(=O)N[C@H](C(=O)N[C@@H](CO)C(=O)N[C@@H](Cc1ccccc1)C(=O)O)[C@@H](C)O [3102.1234] (H-NKMLTITSF-OH) | 1.4
C[C@H](NC(=O)[C@@H](N)CCCNC(=N)N)C(=O)N[C@@H](CO)C(=O)N[C@@H](CO)C(=O)NCC(=O)N[C@@H](CC(=O)O)C(=O)N[C@@H](CO)C(=O)N[C@@H](CO)C(=O)N[C@@H](Cc1ccccc1)C(=O)O [3102.1236] (H-RASSGDSSF-OH) | 21
CC(C)C[C@H](NC(=O)[C@@H](NC(=O)[C@H](CCCNC(=N)N)NC(=O)[C@H](CC(N)=O)NC(=O)[C@H](CC(N)=O)NC(=O)[C@H](CCCCN)NC(=O)[C@@H](N)CCCCN)C(C)C)C(=O)N[C@@H](CS)C(=O)N[C@@H](Cc1ccccc1)C(=O)O [3102.1237] (H-KKNNRVLCF-OH) | 1.6
CC[C@H](C)[C@H](N)C(=O)N[C@@H](CCCCN)C(=O)N[C@@H](CCCNC(=N)N)C(=O)N[C@H](C(=O)N[C@@H](CO)C(=O)N[C@@H](CO)C(=O)N[C@@H](CO)C(=O)N[C@@H](CC(=O)O)C(=O)N[C@@H](Cc1ccccc1)C(=O)O)C(C)C [3102.1239] (H-IKRVSSSDF-OH) | 1.8
CC(C)C[C@H](NC(=O)[C@H](CC(C)C)NC(=O)[C@H](CCCNC(=N)N)NC(=O)[C@H](CCCNC(=N)N)NC(=O)[C@@H](NC(=O)[C@H](Cc1c[nH]cn1)NC(=O)[C@@H](N)Cc1ccccc1)C(C)C)C(=O)N[C@@H](CCCCN)C(=O)N[C@@H](Cc1ccccc1)C(=O)O [3102.1241] (H-FHVRRLLKF-OH) | 21
CC[C@H](C)[C@H](NC(=O)[C@H](CS)NC(=O)[C@@H](NC(=O)[C@H](CC(N)=O)NC(=O)[C@@H]1CCCN1C(=O)[C@H](Cc1ccc(O)cc1)NC(=O)[C@H](CC(C)C)NC(=O)[C@@H](N)CO)C(C)C)C(=O)N[C@@H](Cc1ccccc1)C(=O)O [3102.1246] (H-SLYPNVCIF-OH) | 4.9
CSCC[C@H](NC(=O)[C@@H](N)CCCNC(=N)N)C(=O)N[C@@H](Cc1ccccc1)C(=O)NCC(=O)N[C@@H](CO)C(=O)N[C@@H](CCCCN)C(=O)N1CCC[C@H]1C(=O)N[C@H](C(=O)N[C@@H](Cc1ccccc1)C(=O)O)[C@@H](C)O [3102.1247] (H-RMFGSKPTF-OH) | 0.21
CSCC[C@H](NC(=O)[C@H](CCCCN)NC(=O)[C@H](CCC(N)=O)NC(=O)[C@@H](N)CCCCN)C(=O)N[C@@H](Cc1ccccc1)C(=O)N[C@@H](CO)C(=O)N[C@@H](CC(N)=O)C(=O)N[C@@H](CC(N)=O)C(=O)N[C@H](C(=O)O)C(C)C [3102.1248] (H-KQKMFSNNV-OH) | 19
